Results as given in patent publication US7071205B2 (Ligand Pharmaceuticals Incorporated, priority 2002, dated 2006).
Read-outs that look alike come from different tables or passages of the source.

Columns and labels:
hPR-A = biological target: T1, hPR-A (Homo sapiens, UniProt P06401); assay: Receptor competitive binding assay
T1 sequence (P06401 1-769 isoform P06401-2): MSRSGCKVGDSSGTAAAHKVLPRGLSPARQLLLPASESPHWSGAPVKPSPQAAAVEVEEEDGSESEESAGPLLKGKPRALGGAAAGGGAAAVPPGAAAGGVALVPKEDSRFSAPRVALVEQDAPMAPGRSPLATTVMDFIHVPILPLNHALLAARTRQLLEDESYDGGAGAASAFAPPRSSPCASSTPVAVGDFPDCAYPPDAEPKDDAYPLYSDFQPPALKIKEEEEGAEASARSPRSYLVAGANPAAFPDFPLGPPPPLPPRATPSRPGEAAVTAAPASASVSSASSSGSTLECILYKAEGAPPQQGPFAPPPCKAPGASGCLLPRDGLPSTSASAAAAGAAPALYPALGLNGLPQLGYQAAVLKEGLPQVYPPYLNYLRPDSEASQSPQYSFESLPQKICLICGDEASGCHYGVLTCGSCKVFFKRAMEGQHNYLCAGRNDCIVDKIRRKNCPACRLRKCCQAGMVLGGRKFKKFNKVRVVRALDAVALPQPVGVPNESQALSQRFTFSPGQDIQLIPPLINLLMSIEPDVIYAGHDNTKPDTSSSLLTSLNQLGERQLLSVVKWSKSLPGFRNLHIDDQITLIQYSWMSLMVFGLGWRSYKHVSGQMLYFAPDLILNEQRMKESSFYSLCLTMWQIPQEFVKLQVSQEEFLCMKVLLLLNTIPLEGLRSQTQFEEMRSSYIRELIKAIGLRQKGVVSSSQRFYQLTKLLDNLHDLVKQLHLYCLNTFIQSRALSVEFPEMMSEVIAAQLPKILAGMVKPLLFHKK

immature rabbits = assay: McPhail (Clauberg) assay of progestational activity; format: in vivo, rabbit; conditions: minimum active dose; estradiol-primed immature rabbits, uterine glandular changes
Method: The in vivo activity of selected hPR modulator compounds of the present invention were evaluated utilizing the McPhail assay, according to the following illustrative Examples. The Clauberg or McPhail assay is a classic assay utilizing rabbits to measure progestational activity. […] This is followed by treatment with a progestin, which causes a large change in the glandular content of the uterus. It is this change in the glandular component, which is a measure of the progestational activity of a progestin. The measurement of these glandular changes are carried out histologically using stained sections of the uterus. The in vivo potency of the progestins is presented as the minimum active dose (MAD) in mg/kg.

hPR [1] = biological target: T2, hPR (Homo sapiens, UniProt P06401); assay: Cotransfection assay, PR antagonist activity in CV-1 cells; format: cell-based; conditions: for IC50: antagonist potency IC50; for PR Antagonist CV-1 Cells Efficacy (%): percent maximal response relative to reference antagonist
T2 sequence (P06401 1-933): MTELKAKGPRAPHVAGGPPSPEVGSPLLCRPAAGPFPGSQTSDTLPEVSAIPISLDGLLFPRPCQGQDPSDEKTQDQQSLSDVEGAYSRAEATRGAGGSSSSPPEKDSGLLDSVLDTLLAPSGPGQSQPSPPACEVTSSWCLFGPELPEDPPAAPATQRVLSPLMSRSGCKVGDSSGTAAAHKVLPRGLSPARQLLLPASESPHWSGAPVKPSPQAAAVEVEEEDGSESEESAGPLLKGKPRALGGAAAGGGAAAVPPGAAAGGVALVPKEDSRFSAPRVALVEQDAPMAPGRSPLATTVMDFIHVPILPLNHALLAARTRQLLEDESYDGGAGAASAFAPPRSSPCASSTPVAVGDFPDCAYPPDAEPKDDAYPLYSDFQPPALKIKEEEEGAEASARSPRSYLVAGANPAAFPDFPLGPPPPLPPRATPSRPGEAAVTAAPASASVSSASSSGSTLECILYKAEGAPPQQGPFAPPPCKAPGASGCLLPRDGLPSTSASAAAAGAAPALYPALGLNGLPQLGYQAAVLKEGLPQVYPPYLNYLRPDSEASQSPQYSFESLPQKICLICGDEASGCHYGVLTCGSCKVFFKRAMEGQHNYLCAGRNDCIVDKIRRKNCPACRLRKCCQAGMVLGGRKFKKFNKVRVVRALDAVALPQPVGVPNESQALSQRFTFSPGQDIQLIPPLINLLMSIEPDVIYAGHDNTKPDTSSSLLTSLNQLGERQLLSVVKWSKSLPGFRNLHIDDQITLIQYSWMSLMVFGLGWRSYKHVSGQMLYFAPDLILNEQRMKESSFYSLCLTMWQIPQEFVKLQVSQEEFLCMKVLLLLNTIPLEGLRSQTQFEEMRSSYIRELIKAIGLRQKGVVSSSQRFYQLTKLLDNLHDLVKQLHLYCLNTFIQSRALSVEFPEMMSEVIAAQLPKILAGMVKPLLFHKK
Method: (§1) All the cotransfection experiments were carried out in 96-well plates by automation (Beckman Biomomek automated workstation).

hPR [2] = biological target: T2, hPR; assay: Cotransfection assay, PR agonist activity in CV-1 cells; format: cell-based; conditions: for PR Agonist CV-1 Cells Efficacy (%): MTV-LUC reporter, percent maximal response relative to progesterone
Method: as §1

[3] = Table 2, repeats PR binding Ki of Table 1, read-out: ki
[4] = CV-1 cells, agonist potency EC50, read-out: PR Agonist CV-1 Cells Potency
[5] = Table 2, repeats PR agonist potency of Table 1, read-out: EC50

SMILES	Ki (hPR-A; [3]) [nM]	Ki (hPR-A; hPR-A, read-out: PR Binding Ki) [nM]	MAD (immature rabbits) [mg/kg]	IC50 (hPR [1]) [nM]	PR Antagonist CV-1 Cells Efficacy (%) (hPR [1])	PR Agonist CV-1 Cells Efficacy (%) (hPR [2]; CV-1 cells)	EC50 (hPR [2]; [4]) [nM]	EC50 (hPR [2]; [5]) [nM]
CC1=CC(C2Oc3ccc(F)cc3-c3ccc4c(c32)C(C)=CC(C)(C)N4)CCC1 (racemic) [Compound 24, (±)-(5l,1′l)-5-(3-methyl-2-cyclohexenyl)-9-fluoro-1,2-dihydro-2,2,4-trimethyl-5H-chromeno[3,4-f]quinoline]	6.4	6.4	0.25	> 10000	na (na = not active (i.e. efficacy of <20 and potency of >10,000))	168	3.6	3.6
CC1=C[C@H]([C@H]2Oc3c(F)cc(F)cc3-c3ccc4c(c32)C(C)=CC(C)(C)N4)CCC1 (racemic) [Compound 34, (±)-(5l,1′l)-5-(3-methyl-2-cyclohexenyl)-7,9-difluoro-1,2-dihydro-2,2,4-trimethyl-5H-chromeno[3,4-f]quinoline]			0.25		na (na = not active (i.e. efficacy of <20 and potency of >10,000))	164		
CC1=CC(C)(C)Nc2ccc3c(c21)C(C1CCC(C)=C1C)Oc1c(F)cc(F)cc1-3 (racemic) [Compound 71, (±)-(5l,1′l)-5-(2,3-dimethyl-2-cyclopentenyl)-7,9-difluoro-1,2-dihydro-2,2,4-trimethyl-5H-chromeno[3,4-f]quinoline]	3.9	3.9	0.25	> 10000	na (na = not active (i.e. efficacy of <20 and potency of >10,000))	139	3.4	3.4
CC1=CC(C2Oc3c(F)cc(F)cc3-c3ccc4c(c32)C(C)=CC(C)(C)N4)CCC1 (single isomer, unassigned; (-)) [Compound 38, (−)-(5l,1′l)-5-(3-methyl-2-cyclohexenyl)-7,9-difluoro-1,2-dihydro-2,2,4-trimethyl-5H-chromeno[3,4-f]quinoline]			0.10		na (na = not active (i.e. efficacy of <20 and potency of >10,000))	166		
